The test system of experiment [1] is IFNα stimulated Kit225 T cells with a stably-integrated STAT-dependent luciferase reporter. As to the kind of experiment: Kit225 T cell assay, IFNα stimulated STAT-dependent luciferase reporter. The class given is cell-based, human. On the procedure: (§1) Kit225 T cells with a stably-integrated STAT-dependent luciferase reporter were plated in RPMI (GIBCO) containing 10% heat-inactivated FBS (GIBCO) and 100 U/mL PenStrep (GIBCO). The cells were then stimulated with either 20 ng/mL human recombinant IL-23 or 200 U/mL human recombinant IFNα (PBL InterferonSource) for 5-6 hours. Luciferase expression was measured using the STEADY-GLO Luciferase Assay System (PROMEGA) according to the manufacturer's instructions.
A general note: Reporter assays use an easily measured gene product as a stand-in for the process of interest.

Experiment [2] concerns the target T1, recombinantly expressed His-tagged protein corresponding to amino acids 575-869 of human Tyk2 (Homo sapiens, UniProt P29597).
T1 construct: made in house
As to the kind of experiment: Probe displacement assay (scintillation proximity, tritiated probe). Type of experiment: binding. To be noted: His-tagged Tyk2 (575-869) 2.5 nM, 40 nM radiolabeled probe, 30 minutes at room temperature. On the procedure: The preparation of radiolabeled probe, (R)—N-(1-(3-(8-methyl-5-(methylamino)-8H-imidazo[4,5-d]thiazolo[5,4-b]pyridin-2-yl)phenyl)ethyl)-2-([^3H]methylsulfonyl)benzamide, was performed as described below: […]
A general note: Scintillation proximity formats need no separation of bound from free tracer.

Experiment [3] concerns IL-23 stimulated Kit225 T cells with a stably-integrated STAT-dependent luciferase reporter. As to the kind of experiment: Kit225 T cell assay, IL-23 stimulated STAT-dependent luciferase reporter. Type of experiment: cell-based, human. On the procedure: as §1
The mark [4] stands for this setting: KIT225, 200 U/mL human recombinant IFNα, 5-6 hours, luciferase, read-out: IFNa Kit225 Reporter, (IC50).
[5] abbreviates: KIT225, 20 ng/mL human recombinant IL-23, 5-6 hours, luciferase, read-out: IL-23 Kit225 Reporter, (IC50).
Where [6] appears, read: Homo sapiens, KIT225, 200 U/mL human recombinant IFNα, 5-6 hours, luciferase, read-out: IFNa Kit225 Reporter, (IC50).
Where [7] appears, read: Homo sapiens, KIT225, 20 ng/mL human recombinant IL-23, 5-6 hours, luciferase, read-out: IL-23 Kit225 Reporter, (IC50).

The results in this text go back to patent US10479793B2, “Imidazopyridazine compounds useful as modulators of IL-12, IL-23 and/or IFN alpha responses” (BRISTOL-MYERS SQUIBB COMPANY, priority 2015, dated 2019).

Like-named read-outs stand apart in the source and are kept apart here.

T1 sequence (P29597 with tags, fused parts or gaps): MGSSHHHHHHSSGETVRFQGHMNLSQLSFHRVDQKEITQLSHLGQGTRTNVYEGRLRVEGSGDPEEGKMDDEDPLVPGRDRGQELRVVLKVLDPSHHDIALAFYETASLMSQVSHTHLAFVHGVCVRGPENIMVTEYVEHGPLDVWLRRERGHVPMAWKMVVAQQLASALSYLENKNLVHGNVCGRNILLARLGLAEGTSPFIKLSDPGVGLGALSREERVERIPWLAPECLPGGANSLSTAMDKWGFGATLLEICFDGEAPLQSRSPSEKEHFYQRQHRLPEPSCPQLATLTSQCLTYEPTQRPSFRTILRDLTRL

Turning to `CCCCCNc1cc(Nc2cc(C)cc(C)c2)nn2c(C(N)=O)cnc12` [Example 55], the IC50 in experiment [1] (setting [4]) amounted to 3.62 µM; in experiment [3] (setting [5]) it was 2.38 µM. For the same compound, the EC50 in experiment [2] stood at 80 nM.
Taken in the same sequence, the figures for `COCCNc1cc(Nc2cc(C)cc(C)c2)nn2c(C(N)=O)cnc12` [Example 56] were 1.79 µM, 2.12 µM and 70 nM.
As to `Cc1cc(C)cc(Nc2cc(NCCN(C)C)c3ncc(C(N)=O)n3n2)c1` [Example 58], the IC50 in experiment [1] (Homo sapiens, KIT225, read-out: IFNa Kit225 Reporter, (IC50, uM)) is 2.96 µM; in experiment [3] (Homo sapiens, KIT225, read-out: IL-23 Kit225 Reporter, (IC50, uM)), 1.55 µM. Besides, the EC50 in experiment [2] stood at 80 nM.
Consider `Cc1cc(F)cc(Nc2cc(NCC(F)(F)F)c3ncc(C(N)=O)n3n2)c1` [Example 59], for which the IC50 in experiment [1] (setting [4]) stood at 12.5 µM; in experiment [3] (setting [5]), 9.48 µM. In addition, in experiment [2], the EC50 came out at 160 nM.
Regarding `Cc1cc(C)cc(Nc2cc(Nc3cncs3)c3ncc(C(N)=O)n3n2)c1` [Example 61], the results for the IC50 in experiment [1] (setting [4]) and in experiment [3] (setting [5]) were 1.94 µM and 2.63 µM, respectively. Moreover, in experiment [2], the EC50 stood at 50 nM.
On to `Cc1cc(C)cc(Nc2cc(Nc3cc(C)n(C)n3)c3ncc(C(N)=O)n3n2)c1` [Example 62], for which the results for the IC50 in experiment [1] (setting [4]) and in experiment [3] (setting [5]) were 11 µM and 13.2 µM, respectively. In experiment [2], the EC50 was found to be 300 nM.
`Cc1cc(C)cc(Nc2cc(Nc3cnccn3)c3ncc(C(N)=O)n3n2)c1` [Example 63]: the IC50 in experiment [1] (setting [4]) and in experiment [3] (setting [5]) was 12.5 µM throughout. Besides, in experiment [2], the 50% effective concentration (EC50) was 280 nM.
In the case of `Cc1cc(C)cc(Nc2cc(Nc3cccnc3)c3ncc(C(N)=O)n3n2)c1` [Example 64], the IC50 in experiment [1] (setting [4]) and in experiment [3] (setting [5]) was 12.5 µM in each case. The EC50 in experiment [2] amounted to 70 nM.
As to `Cc1cc(C)cc(Nc2cc(N)c3ncc(C(N)=O)n3n2)c1` [Example 67], the values for the IC50 in experiment [1] (setting [4]) and in experiment [3] (setting [5]) were 0.73 µM and 0.7 µM, respectively. For the same compound, in experiment [2], the EC50 stood at 10 nM.
`Cc1cc(F)cc(Nc2ccc3ncc(C(=O)NC4CC4)n3n2)c1` [Example 68]: the figures for the IC50 in experiment [1] (setting [6]) and in experiment [3] (setting [7]) were 0.86 µM and 0.95 µM, respectively. For the same compound, the EC50 in experiment [2] worked out at 2.26 nM.
For `CNc1nc(Nc2cc(C)cc(C)c2)nn2c(C(N)=O)cnc12` [Example 69], the figures for the IC50 in experiment [1] (setting [4]) and in experiment [3] (setting [5]) were 0.15 µM and 0.42 µM, respectively. For the same compound, the EC50 in experiment [2] turned out to be 5.44 nM.
With `Cc1cc(C)cc(Nc2nc(NC3CC3)c3ncc(C(N)=O)n3n2)c1` [Example 70], the 50% inhibitory concentration (IC50) in experiment [1] (setting [4]) amounted to 12.5 µM; in experiment [3] (setting [5]) it was 11.2 µM. Moreover, the EC50 in experiment [2] was 80 nM.
In the case of `Cc1cc(F)cc(Nc2nc(NC3CC3)c3ncc(C(N)=O)n3n2)c1` [Example 71], the concentration for half-maximal inhibition (IC50) turned out to be 12.5 µM in experiment [1] (setting [4]) and 2.97 µM in experiment [3] (setting [5]). In addition, the 50% effective concentration (EC50) in experiment [2] came to 140 nM.
With `CNc1nc(Nc2cc(C)cc(F)c2)nn2c(C(N)=O)cnc12` [Example 73], the figures for the IC50 in experiment [1] (setting [4]) and in experiment [3] (setting [5]) were 0.14 µM and 0.28 µM, respectively. For the same compound, the EC50 in experiment [2] was 7.75 nM.
On to `CNc1nc(Nc2ccccc2OC)nn2c(C(N)=O)cnc12` [Example 74], for which the IC50 came out at 0.2 µM in experiment [1] (setting [4]) and 0.3 µM in experiment [3] (setting [5]). For the same compound, the EC50 in experiment [2] turned out to be 10 nM.
`CNc1cc(Nc2c(OC)ccc(F)c2F)nn2c(C(=O)NC3CC3)cnc12` [Example 75]: the IC50 in experiment [1] (setting [6]) was 0.05 µM; in experiment [3] (setting [7]), 0.1 µM. The EC50 in experiment [2] amounted to 2.09 nM.
The corresponding values for `CNc1cc(N(C)c2ccccc2)nn2c(C(=O)NC3CC3)cnc12` [Example 76] are 2.79 µM, 3.55 µM and 50 nM.
Turning to `CNc1cc(Nc2ccccc2OC)nn2c(C(=O)NC3CC3)cnc12` [Example 77], the IC50 was determined as 0.01 µM in experiment [1] (setting [6]) and 0.03 µM in experiment [3] (setting [7]). Besides, the EC50 in experiment [2] was found to be 4.02 nM.
For the compound `CNc1cc(N2CCc3ccccc32)nn2c(C(=O)NC3CC3)cnc12` [Example 78], the IC50 was found to be 0.07 µM in experiment [1] (setting [4]) and 0.18 µM in experiment [3] (setting [5]). The EC50 in experiment [2] worked out at 8.17 nM.
For the compound `CNc1cc(Nc2cc(F)cc(F)c2OC)nn2c(C(=O)NC3CC3)cnc12` [Example 79], the IC50 in experiment [1] (setting [6]) stood at 0.05 µM; in experiment [3] (setting [7]), 0.07 µM. Also, the EC50 in experiment [2] stood at 6.95 nM.
For the compound `CNc1cc(Nc2ccccc2OC)nn2c(C(=O)NCC(C)(C)O)cnc12` [Example 80], the values for the IC50 in experiment [1] (setting [4]) and in experiment [3] (setting [5]) were 0.12 µM and 0.15 µM, respectively. Besides, the EC50 in experiment [2] worked out at 4.83 nM.
`CNc1cc(Nc2cc(F)cc(F)c2OC)nn2c(C(=O)NCC(C)(C)O)cnc12` [Example 81]: the 50% inhibitory concentration (IC50) in experiment [1] (setting [4]) was 0.23 µM; in experiment [3] (setting [5]), 0.27 µM. For the same compound, the EC50 in experiment [2] was 7.26 nM.
Turning to `CNc1cc(Nc2cccc3c2OCCO3)nn2c(C(=O)NCC(C)(C)O)cnc12` [Example 82], the IC50 was determined as 0.09 µM in experiment [1] (setting [4]) and 0.18 µM in experiment [3] (setting [5]). Besides, in experiment [2], the EC50 was determined as 10 nM.
For `CNc1cc(Nc2cc(F)cc(F)c2OC)nn2c(C(N)=O)cnc12` [Example 83], the IC50 in experiment [1] (setting [4]) came to 0.06 µM; in experiment [3] (setting [5]), 0.17 µM. For the same compound, the EC50 in experiment [2] was 5.76 nM.
As to `CNc1cc(Nc2cccc(-n3cccn3)n2)nn2c(C(=O)NC3CC3)cnc12` [Example 85], the IC50 in experiment [1] (setting [4]) is 0.03 µM; in experiment [3] (setting [5]) it was 0.04 µM. The EC50 in experiment [2] came out at 9.31 nM.
Turning to `CNc1cc(Nc2cccc(-c3ccccc3)n2)nn2c(C(=O)NC3CC3)cnc12` [Example 86], the values for the IC50 in experiment [1] (setting [6]) and in experiment [3] (setting [7]) were 0.3 µM and 0.29 µM, respectively. Also, in experiment [2], the EC50 was 20 nM.
`CNc1cc(Nc2cccc(N3CCOC3=O)n2)nn2c(C(=O)NC3CC3)cnc12` [Example 87]: the values for the concentration for half-maximal inhibition (IC50) in experiment [1] (setting [4]) and in experiment [3] (setting [5]) were 0.06 µM and 0.09 µM, respectively. Moreover, the EC50 in experiment [2] turned out to be 4.31 nM.
As to `CNc1cc(Nc2cccc(N3CCCC3=O)n2)nn2c(C(=O)NC3CC3)cnc12` [Example 88], the IC50 in experiment [1] (setting [4]) is 0.02 µM; in experiment [3] (setting [5]) it was 0.01 µM. Further, in experiment [2], the EC50 was found to be 8.34 nM.
As to `CNc1cc(Nc2cccc(-n3ccc(C(F)(F)F)n3)n2)nn2c(C(=O)NC3CC3)cnc12` [Example 89], the half-maximal inhibitory concentration (IC50) in experiment [1] (setting [4]) was found to be 0.44 µM; in experiment [3] (setting [5]), 0.39 µM. Also, in experiment [2], the EC50 stood at 10 nM.
Taken in the same sequence, the figures for `CNc1cc(Nc2cccc(N3CCC(O)C3=O)n2)nn2c(C(=O)NC3CC3)cnc12` (stereo not drawn) [Example 90] were 0.14 µM, 0.7 µM and 3.9 nM.
Take `CNc1cc(Nc2cccnc2-n2cccn2)nn2c(C(=O)NC3CC3)cnc12` [Example 92]: the results for the IC50 in experiment [1] (setting [6]) and in experiment [3] (setting [7]) were 0.21 µM and 0.4 µM, respectively. Besides, in experiment [2], the half-maximal effective concentration (EC50) amounted to 30 nM.
Take `CNc1cc(Nc2cncc(OC)c2)nn2c(C(=O)NC3CC3)cnc12` [Example 93]: the IC50 in experiment [1] (setting [6]) amounted to 0.41 µM; in experiment [3] (setting [7]), 1.1 µM. Moreover, the EC50 in experiment [2] worked out at 10 nM.
With `CNc1cc(Nc2cccnc2OC)nn2c(C(=O)NC3CC3)cnc12` [Example 94], the IC50 in experiment [1] (setting [6]) is 0.03 µM; in experiment [3] (setting [7]), 0.02 µM. The EC50 in experiment [2] amounted to 1.37 nM.
The corresponding values for `CNc1cc(Nc2cccnc2F)nn2c(C(=O)NC3CC3)cnc12` [Example 95] are 0.27 µM, 0.37 µM and 20 nM.
On to `CNc1cc(Nc2cncc(C)c2)nn2c(C(=O)NC3CC3)cnc12` [Example 96], for which the results for the IC50 in experiment [1] (setting [6]) and in experiment [3] (setting [7]) were 0.6 µM and 0.51 µM, respectively. The EC50 in experiment [2] is 7.18 nM.
The corresponding values for `CNc1cc(Nc2cccnc2C)nn2c(C(=O)NC3CC3)cnc12` [Example 97] are 0.65 µM, 0.42 µM and 30 nM.

For orientation: IC50 means the concentration that inhibits the measured activity by half. One may read the EC50 as the midpoint of the concentration-response curve.
